Results published in PubChem BioAssay AID330 (DTP/NCI, 2004).
Toxic doses and inconclusive results are not listed.

System: P388 leukemia ip, CD2F1 mice, survival T/C
Experiment: NCI In Vivo Anticancer Drug Screen. Data for tumor model P388 Leukemia (intraperitoneal) in CD2F1 (CDF1) mice
Conditions: endpoint: median survival time, higher = longer survival
Procedure, shortened: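 Mice carrying the transplanted tumor received test compound or vehicle. Survival was recorded in each group, and the value is the treated-group measurement divided by that of the vehicle-treated control group.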

O=C1NC(c2cccc3ccccc23)Nc2ccccc21 (configuration not stated)
T/C (dose: 8.0 mg/kg/injection, schedule: Q03HX008 (ip), vehicle: Klucel (hydroxypropylcellulose) (HPC)): 118 % of control | T/C (dose: 8.0 mg/kg/injection, schedule: Q03HX008 (ip), vehicle: other): 109 % of control | T/C (dose: 8.0 mg/kg/injection, schedule: Q03HX008 (oral), vehicle: Klucel (hydroxypropylcellulose) (HPC)): 99 % of control | T/C (dose: 8.0 mg/kg/injection, schedule: Q03HX008 (oral), vehicle: other): 100 % of control | T/C (dose: 8.0 mg/kg/injection, schedule: Q03HX016 (ip), vehicle: Klucel (hydroxypropylcellulose) (HPC)): 124 % of control | T/C (dose: 8.0 mg/kg/injection, schedule: Q03HX016 (ip), vehicle: other): 101 % of control | T/C (dose: 8.0 mg/kg/injection, schedule: Q03HX016 (oral), vehicle: Klucel (hydroxypropylcellulose) (HPC)): 100 % of control | T/C (dose: 8.0 mg/kg/injection, schedule: Q03HX016 (oral), vehicle: other): 114 % of control | T/C (dose: 8.0 mg/kg/injection, schedule: Q03HX024 (ip), vehicle: other): 124 % of control | T/C (dose: 8.0 mg/kg/injection, schedule: Q03HX024 (oral), vehicle: Klucel (hydroxypropylcellulose) (HPC)): 101 % of control | T/C (dose: 8.0 mg/kg/injection, schedule: Q03HX024 (oral), vehicle: other): 108 % of control | T/C (dose: 16.0 mg/kg/injection, schedule: Q01DX009 (ip), vehicle: Klucel (hydroxypropylcellulose) (HPC)): 155 % of control | T/C (dose: 16.0 mg/kg/injection, schedule: Q01DX009 (ip), vehicle: other): 108 % of control | T/C (dose: 16.0 mg/kg/injection, schedule: Q01DX009 (oral), vehicle: Klucel (hydroxypropylcellulose) (HPC)): 100 % of control | T/C (dose: 16.0 mg/kg/injection, schedule: Q01DX009 (oral), vehicle: other): 100 % of control | T/C (dose: 16.0 mg/kg/injection, schedule: Q01DX009 (sc), vehicle: Klucel (hydroxypropylcellulose) (HPC)): 106 % of control | T/C (dose: 16.0 mg/kg/injection, schedule: Q01DX009 (sc), vehicle: other): 94 % of control | T/C (dose: 16.0 mg/kg/injection, schedule: Q03HX008 (ip), vehicle: other): 117 % of control | T/C (dose: 16.0 mg/kg/injection, schedule: Q03HX008 (oral), vehicle: Klucel (hydroxypropylcellulose) (HPC)): 95 % of control | T/C (dose: 16.0 mg/kg/injection, schedule: Q03HX008 (oral), vehicle: other): 104 % of control | T/C (dose: 16.0 mg/kg/injection, schedule: Q03HX016 (ip), vehicle: other): 123 % of control | T/C (dose: 16.0 mg/kg/injection, schedule: Q03HX016 (oral), vehicle: Klucel (hydroxypropylcellulose) (HPC)): 102 % of control | T/C (dose: 16.0 mg/kg/injection, schedule: Q03HX016 (oral), vehicle: other): 115 % of control | T/C (dose: 16.0 mg/kg/injection, schedule: Q03HX024 (ip), vehicle: Klucel (hydroxypropylcellulose) (HPC)): 174 % of control | T/C (dose: 16.0 mg/kg/injection, schedule: Q03HX024 (oral), vehicle: Klucel (hydroxypropylcellulose) (HPC)): 102 % of control | T/C (dose: 32.0 mg/kg/injection, schedule: Q01DX009 (ip), vehicle: Klucel (hydroxypropylcellulose) (HPC)): 177 % of control | T/C (dose: 32.0 mg/kg/injection, schedule: Q01DX009 (ip), vehicle: other): 102 % of control | T/C (dose: 32.0 mg/kg/injection, schedule: Q01DX009 (oral), vehicle: Klucel (hydroxypropylcellulose) (HPC)): 102 % of control | T/C (dose: 32.0 mg/kg/injection, schedule: Q01DX009 (oral), vehicle: other): 107 % of control | T/C (dose: 32.0 mg/kg/injection, schedule: Q01DX009 (sc), vehicle: Klucel (hydroxypropylcellulose) (HPC)): 114 % of control | T/C (dose: 32.0 mg/kg/injection, schedule: Q01DX009 (sc), vehicle: other): 117 % of control | T/C (dose: 32.0 mg/kg/injection, schedule: Q03HX008 (ip), vehicle: Klucel (hydroxypropylcellulose) (HPC)): 173 % of control | T/C (dose: 32.0 mg/kg/injection, schedule: Q03HX008 (oral), vehicle: Klucel (hydroxypropylcellulose) (HPC)): 99 % of control | T/C (dose: 32.0 mg/kg/injection, schedule: Q03HX008 (oral), vehicle: other): 122 % of control | T/C (dose: 32.0 mg/kg/injection, schedule: Q03HX016 (ip), vehicle: Klucel (hydroxypropylcellulose) (HPC)): 200 % of control | T/C (dose: 32.0 mg/kg/injection, schedule: Q03HX016 (oral), vehicle: Klucel (hydroxypropylcellulose) (HPC)): 110 % of control | T/C (dose: 32.0 mg/kg/injection, schedule: Q03HX024 (oral), vehicle: Klucel (hydroxypropylcellulose) (HPC)): 109 % of control | T/C (dose: 32.0 mg/kg/injection, schedule: Q03HX024 (oral), vehicle: other): 168 % of control | T/C (dose: 64.0 mg/kg/injection, schedule: Q01DX001 (ip), vehicle: Klucel (hydroxypropylcellulose) (HPC)): 113 % of control | T/C (dose: 64.0 mg/kg/injection, schedule: Q01DX001 (ip), vehicle: other): 99 % of control | T/C (dose: 64.0 mg/kg/injection, schedule: Q01DX001 (oral), vehicle: Klucel (hydroxypropylcellulose) (HPC)): 100 % of control | T/C (dose: 64.0 mg/kg/injection, schedule: Q01DX001 (oral), vehicle: other): 94 % of control | T/C (dose: 64.0 mg/kg/injection, schedule: Q01DX009 (ip), vehicle: Klucel (hydroxypropylcellulose) (HPC)): 194 % of control | T/C (dose: 64.0 mg/kg/injection, schedule: Q01DX009 (ip), vehicle: other): 120 % of control | T/C (dose: 64.0 mg/kg/injection, schedule: Q01DX009 (oral), vehicle: Klucel (hydroxypropylcellulose) (HPC)): 108 % of control | T/C (dose: 64.0 mg/kg/injection, schedule: Q01DX009 (oral), vehicle: other): 118 % of control | T/C (dose: 64.0 mg/kg/injection, schedule: Q03HX008 (oral), vehicle: Klucel (hydroxypropylcellulose) (HPC)): 108 % of control | T/C (dose: 64.0 mg/kg/injection, schedule: Q03HX016 (oral), vehicle: Klucel (hydroxypropylcellulose) (HPC)): 116 % of control | T/C (dose: 64.0 mg/kg/injection, schedule: Q03HX024 (oral), vehicle: Klucel (hydroxypropylcellulose) (HPC)): 119 % of control | T/C (dose: 64.0 mg/kg/injection, schedule: Q04DX003 (ip), vehicle: Klucel (hydroxypropylcellulose) (HPC)): 118 % of control | T/C (dose: 64.0 mg/kg/injection, schedule: Q04DX003 (ip), vehicle: other): 91 % of control | T/C (dose: 64.0 mg/kg/injection, schedule: Q04DX003 (oral), vehicle: Klucel (hydroxypropylcellulose) (HPC)): 100 % of control | T/C (dose: 64.0 mg/kg/injection, schedule: Q04DX003 (oral), vehicle: other): 117 % of control | T/C (dose: 64.0 mg/kg/injection, schedule: Q04DX003 (sc), vehicle: Klucel (hydroxypropylcellulose) (HPC)): 113 % of control | T/C (dose: 64.0 mg/kg/injection, schedule: Q04DX003 (sc), vehicle: other): 107 % of control | T/C (dose: 64.0 mg/kg/injection, schedule: Q08DX002 (ip), vehicle: Klucel (hydroxypropylcellulose) (HPC)): 118 % of control | T/C (dose: 64.0 mg/kg/injection, schedule: Q08DX002 (ip), vehicle: other): 100 % of control | T/C (dose: 64.0 mg/kg/injection, schedule: Q08DX002 (oral), vehicle: Klucel (hydroxypropylcellulose) (HPC)): 102 % of control | T/C (dose: 64.0 mg/kg/injection, schedule: Q08DX002 (oral), vehicle: other): 104 % of control | T/C (dose: 128.0 mg/kg/injection, schedule: Q01DX001 (ip), vehicle: Klucel (hydroxypropylcellulose) (HPC)): 121 % of control | T/C (dose: 128.0 mg/kg/injection, schedule: Q01DX001 (ip), vehicle: other): 104 % of control | T/C (dose: 128.0 mg/kg/injection, schedule: Q01DX001 (oral), vehicle: Klucel (hydroxypropylcellulose) (HPC)): 99 % of control | T/C (dose: 128.0 mg/kg/injection, schedule: Q01DX001 (oral), vehicle: other): 108 % of control | T/C (dose: 128.0 mg/kg/injection, schedule: Q01DX009 (oral), vehicle: Klucel (hydroxypropylcellulose) (HPC)): 109 % of control | T/C (dose: 128.0 mg/kg/injection, schedule: Q03HX008 (oral), vehicle: Klucel (hydroxypropylcellulose) (HPC)): 110 % of control | T/C (dose: 128.0 mg/kg/injection, schedule: Q03HX016 (oral), vehicle: Klucel (hydroxypropylcellulose) (HPC)): 122 % of control | T/C (dose: 128.0 mg/kg/injection, schedule: Q04DX003 (ip), vehicle: other): 109 % of control | T/C (dose: 128.0 mg/kg/injection, schedule: Q04DX003 (oral), vehicle: Klucel (hydroxypropylcellulose) (HPC)): 105 % of control | T/C (dose: 128.0 mg/kg/injection, schedule: Q04DX003 (oral), vehicle: other): 122 % of control | T/C (dose: 128.0 mg/kg/injection, schedule: Q04DX003 (sc), vehicle: Klucel (hydroxypropylcellulose) (HPC)): 115 % of control | T/C (dose: 128.0 mg/kg/injection, schedule: Q04DX003 (sc), vehicle: other): 114 % of control | T/C (dose: 128.0 mg/kg/injection, schedule: Q08DX002 (ip), vehicle: other): 94 % of control | T/C (dose: 128.0 mg/kg/injection, schedule: Q08DX002 (oral), vehicle: Klucel (hydroxypropylcellulose) (HPC)): 106 % of control | T/C (dose: 256.0 mg/kg/injection, schedule: Q01DX001 (ip), vehicle: other): 105 % of control | T/C (dose: 256.0 mg/kg/injection, schedule: Q01DX001 (oral), vehicle: Klucel (hydroxypropylcellulose) (HPC)): 101 % of control | T/C (dose: 256.0 mg/kg/injection, schedule: Q01DX009 (oral), vehicle: Klucel (hydroxypropylcellulose) (HPC)): 116 % of control | T/C (dose: 256.0 mg/kg/injection, schedule: Q01DX009 (sc), vehicle: Klucel (hydroxypropylcellulose) (HPC)): 91 % of control | T/C (dose: 256.0 mg/kg/injection, schedule: Q04DX003 (ip), vehicle: Klucel (hydroxypropylcellulose) (HPC)): 168 % of control | T/C (dose: 256.0 mg/kg/injection, schedule: Q04DX003 (ip), vehicle: other): 109 % of control | T/C (dose: 256.0 mg/kg/injection, schedule: Q04DX003 (oral), vehicle: Klucel (hydroxypropylcellulose) (HPC)): 107 % of control | T/C (dose: 256.0 mg/kg/injection, schedule: Q04DX003 (oral), vehicle: other): 95 % of control | T/C (dose: 256.0 mg/kg/injection, schedule: Q04DX003 (sc), vehicle: Klucel (hydroxypropylcellulose) (HPC)): 122 % of control | T/C (dose: 256.0 mg/kg/injection, schedule: Q08DX002 (ip), vehicle: other): 108 % of control | T/C (dose: 256.0 mg/kg/injection, schedule: Q08DX002 (oral), vehicle: Klucel (hydroxypropylcellulose) (HPC)): 106 % of control | T/C (dose: 512.0 mg/kg/injection, schedule: Q01DX001 (oral), vehicle: Klucel (hydroxypropylcellulose) (HPC)): 102 % of control | T/C (dose: 512.0 mg/kg/injection, schedule: Q04DX003 (oral), vehicle: Klucel (hydroxypropylcellulose) (HPC)): 116 % of control | T/C (dose: 512.0 mg/kg/injection, schedule: Q08DX002 (ip), vehicle: Klucel (hydroxypropylcellulose) (HPC)): 185 % of control | T/C (dose: 512.0 mg/kg/injection, schedule: Q08DX002 (oral), vehicle: Klucel (hydroxypropylcellulose) (HPC)): 108 % of control | T/C (dose: 1024.0 mg/kg/injection, schedule: Q01DX001 (oral), vehicle: Klucel (hydroxypropylcellulose) (HPC)): 101 % of control | T/C (dose: 1024.0 mg/kg/injection, schedule: Q04DX003 (oral), vehicle: Klucel (hydroxypropylcellulose) (HPC)): 106 % of control | T/C (dose: 1024.0 mg/kg/injection, schedule: Q04DX003 (sc), vehicle: Klucel (hydroxypropylcellulose) (HPC)): 123 % of control | T/C (dose: 1024.0 mg/kg/injection, schedule: Q08DX002 (oral), vehicle: Klucel (hydroxypropylcellulose) (HPC)): 115 % of control
